The results in this text go back to patent US12201633B2, “Compounds and methods for treatment of visceral pain” (Arena Pharmaceuticals, Inc., priority 2017, dated 2025).

One assay deals with human CB2 receptor (Homo sapiens, UniProt P34972). As to the kind of experiment: PathHunter β-arrestin assay, CB2.
Sequence of human CB2 receptor (P34972 whole entry): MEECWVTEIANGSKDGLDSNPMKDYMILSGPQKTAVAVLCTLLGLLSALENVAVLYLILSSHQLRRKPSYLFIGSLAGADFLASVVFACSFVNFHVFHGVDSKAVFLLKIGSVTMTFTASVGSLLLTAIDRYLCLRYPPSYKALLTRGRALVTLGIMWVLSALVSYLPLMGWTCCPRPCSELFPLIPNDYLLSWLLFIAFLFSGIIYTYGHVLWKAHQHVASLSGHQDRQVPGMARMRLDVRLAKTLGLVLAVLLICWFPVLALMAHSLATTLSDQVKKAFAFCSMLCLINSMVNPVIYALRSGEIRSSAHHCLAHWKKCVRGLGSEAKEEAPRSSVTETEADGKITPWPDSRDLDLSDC
Settings: not given
Consider `CC(C)(COP(=O)(O)O)NC(=O)c1nn(-c2cc(C#N)ccn2)c2c1C[C@H]1C[C@@H]21` [Compound 646, Phosphoric acid mono-(2-{[(1aR,5aR)-2-(4-cyano-pyridin-2-yl)-1a,2,5,5a-tetrahydro-1H-2,3-diaza-cyclopropa[a]pentalene-4-carbonyl]-amino}-2-methyl-propyl) ester], for which the concentration giving a half-maximal response (EC50) is 925 nM.

In turn, `CC(C)(C)[C@@H](COP(=O)(O)O)NC(=O)c1nn(-c2cnccn2)c2c1C[C@H]1C[C@@H]21` [Compound 683, Phosphoric acid mono-{(S)-3,3-dimethyl-2-[((1aR,5aR)-2-pyrazin-2-yl-1a,2,5,5a-tetrahydro-1H-2,3-diaza-cyclopropa[a]pentalene-4-carbonyl)-amino]-butyl} ester] gave an EC50 of 3000 nM.

`CC(C)(C)[C@@H](COP(=O)(O)O)NC(=O)c1nn(-c2c[n+]([O-])ccn2)c2c1C[C@H]1C[C@@H]21` [Compound 703, Phosphoric acid mono-((S)-3,3-dimethyl-2-{[(1aR,5aR)-2-(4-oxy-pyrazin-2-yl)-1a,2,5,5a-tetrahydro-1H-2,3-diaza-cyclopropa[a]pentalene-4-carbonyl]-amino}-butyl) ester]: it took 603 nM to reach a half-maximal effect (EC50).

On to `COC(=O)C(NC(=O)c1nn(-c2c[n+]([O-])ccn2)c2c1C[C@H]1C[C@@H]21)c1ccccn1` (stereo partly drawn) [Compound 711, {[(1aR,5aR)-2-(4-Oxy-pyrazin-2-yl)-1a,2,5,5a-tetrahydro-1H-2,3-diaza-cyclopropa[a]pentalene-4-carbonyl]-amino}-pyridin-2-yl-acetic acid methyl ester], for which a half-maximal response (EC50) required 28.1 nM.

`CNC(=O)[C@@H](NC(=O)c1nn(-c2c[n+]([O-])ccn2)c2c1C[C@H]1C[C@@H]21)c1ccccc1` [Compound 722, (1aR,5aR)-2-(4-Oxy-pyrazin-2-yl)-1a,2,5,5a-tetrahydro-1H-2,3-diaza-cyclopropa[a]pentalene-4-carboxylic acid ((S)-methylcarbamoyl-phenyl-methyl)-amide] gave an EC50 of 34 nM.

`CC(C)(C)[C@@H](NC(=O)c1nn(-c2c[n+]([O-])ccn2)c2c1C[C@@H]1C[C@H]21)c1ccccn1` [Compound 766, (1aS,5aS)-2-(4-Oxy-pyrazin-2-yl)-1a,2,5,5a-tetrahydro-1H-2,3-diaza-cyclopropa[a]pentalene-4-carboxylic acid ((R)-2,2-dimethyl-1-pyridin-2-yl-propyl)-amide] had an EC50 of 4.57 nM.

Compound `CC(C)(C)[C@H](NC(=O)c1nn(-c2c[n+]([O-])ccn2)c2c1C[C@@H]1C[C@H]21)c1ccccn1` [Compound 767, (1aS,5aS)-2-(4-Oxy-pyrazin-2-yl)-1a,2,5,5a-tetrahydro-1H-2,3-diaza-cyclopropa[a]pentalene-4-carboxylic acid ((S)-2,2-dimethyl-1-pyridin-2-yl-propyl)-amide] showed an EC50 of 66.6 nM.

In turn, `CC(C)[C@@H](C)NC(=O)c1nn(-c2c[n+]([O-])ccn2)c2c1C[C@H]1C[C@@H]21` [Compound 828, (1aR,5aR)-2-(4-Oxy-pyrazin-2-yl)-1a,2,5,5a-tetrahydro-1H-2,3-diaza-cyclopropa[a]pentalene-4-carboxylic acid ((R)-1,2-dimethyl-propyl)-amide] gave an EC50 of 4.14 nM.

For `CC(C)[C@H](N)C(=O)OC[C@@H](NC(=O)c1nn(-c2c[n+]([O-])ccn2)c2c1C[C@@H]1C[C@H]21)C(C)(C)C` [Compound 848, (1aS,5aS)—(S)-2-Amino-3-methyl-butyric acid (S)-3,3-dimethyl-2-{[2-(4-oxy-pyrazin-2-yl)-1a,2,5,5a-tetrahydro-1H-2,3-diaza-cyclopropa[a]pentalene-4-carbonyl]-amino}-butyl ester], the concentration for a half-maximal effect (EC50) was determined as 50 nM.

Still in this assay, the particulars now being: read-out: EC50 hCB2; β-arrestin, CHO-K1 cells; Table B-2.
Regarding `O=C(NC1(C(F)(F)F)CC1)c1nn(-c2c[n+]([O-])ccn2)c2c1C[C@@H]1C[C@H]21` [Compound 764, (1aS,5aS)-2-(4-Oxy-pyrazin-2-yl)-1a,2,5,5a-tetrahydro-1H-2,3-diaza-cyclopropa[a]pentalene-4-carboxylic acid (1-trifluoromethyl-cyclopropyl)-amide], the 50% effective concentration (EC50) turned out to be 5.92 nM.

The EC50 is the concentration that produces a half-maximal response.
